Results on six compounds are retold here after PMC11651181, “Discovery of 6α-Thiazolylcarboxamidonaltrexamine Derivative (NTZ) as a Potent and Central Nervous System Penetrant Opioid Receptor Modulator with Drug-like Properties for Potential Treatment of Opioid Use Disorder” (ACS Pharmacology & Translational Science, 2024).

“Also recorded” adds a separate entry of the source. Where a name gives a salt, the structure may show the parent alone. Read-outs that look alike come from different tables or passages of the source.

In one data set the target is T1, μ opioid receptor (MOR) (Mus musculus, UniProt P42866).
T1 construct: expressed in transfected cells; host or cells: CHO (mMOR-CHO), membrane preparation
Kind of data set: Competitive radioligand binding assay, MOR. As for the experimental part:
(§1) The competition binding assay was performed using monoclonal mouse opioid receptors expressed in CHO cell lines (monoclonal human δ opioid receptor was used for the DOR assay).
(§2) The bound radioligand was separated using a Brandel harvester. Specific binding to the MOR, KOR, and DOR was calculated by subtracting the binding observed in the presence of 5 μM naltrexone, U50488, and SNC80, respectively, from the binding in their absence. Relative affinity values (IC50) were determined by fitting displacement binding inhibition data to a nonlinear regression model using GraphPad Prism 8.0 (GraphPad Software, San Diego, CA). The % inhibition was calculated using the formula: % inhibition = 100% - [(binding with the tested compound - nonspecific binding)/specific binding] × 100%. The IC50 values were converted to Ki values using the Cheng-Prusoff equation: Ki = IC50/ [1 + ([L*]/KD)], where [L*] is the concentration of the radioligand and KD is the KD of the radioligand.[68]

In another data set the target is T2, δ opioid receptor (DOR) (Homo sapiens, UniProt P41143).
T2 construct: expressed in transfected cells; host or cells: CHO (hDOR-CHO), membrane preparation
Kind of data set: Competitive radioligand binding assay, DOR. As for the experimental part:
as §1, §2

A further data set has as its target T3, κ opioid receptor (KOR) (Mus musculus, UniProt P33534).
T3 construct: expressed in transfected cells; host or cells: CHO (mKOR-CHO), membrane preparation
Kind of data set: Competitive radioligand binding assay, KOR. The following applies: for Selectivity κ/μ: ratio of Ki values. As to the method:
as §1, §2

Data set [1] concerns the target T4, MOR (Mus musculus, UniProt P42866).
T4 construct: expressed in transfected cells; host or cells: CHO (MOR-CHO), membrane preparation
Briefly: MOR [35S]GTPγS functional assay. The following applies: for Emax: read-out: MOR [35S]GTPγS Binding %Emax of DAMGO, relative to 3 μM DAMGO, mean ± SEM. The class given is biochemical. As for the experimental part:
(§3) The [^35S]GTPγS functional assay was used to assess the efficacy of compounds at the MOR, KOR, and DOR. In this assay, 10 μg of MOR-CHO/KOR-CHO/DOR-CHO membrane protein was incubated in 500 μL of TME with 100 mM NaCl, 20 μM GDP, 0.1 nM [^35S]GTPγS, and varying concentrations of the compound for 1.5 h in a 30 °C water bath. Protein concentration was adjusted using the Bradford protein assay. […] After incubation, bound radioactivity was separated by filtration through GF/B glass fiber filters and measured by liquid scintillation counting. All assays were performed in duplicate and repeated at least three times. Net stimulated [35S]GTPγS binding was calculated as agonist-stimulated minus basal binding.
(In general: Binding of GTPγS marks nucleotide exchange on a G protein.)

Data set [2] relates to Swiss Webster mice. Briefly: Warm-water tail immersion assay, agonism (acute antinociception). The following applies: single dose of 10 mg/kg s.c., n = 6, vs 10 mg/kg morphine.
A further data set has as its target T5, KOR (Mus musculus, UniProt P33534).
T5 construct: expressed in transfected cells; host or cells: CHO (KOR-CHO), membrane preparation
Briefly: KOR [35S]GTPγS functional assay. It counts as biochemical. The following applies: for Emax: relative to 3 μM U50488H, mean ± SEM, read-out: KOR [35S]GTPγS binding % Emax of U50488H. As to the method:
as §3

Another data set has as its target T6, DOR (Homo sapiens, UniProt P41143).
T6 construct: expressed in transfected cells; host or cells: CHO (DOR-CHO), membrane preparation
Briefly: DOR [35S]GTPγS functional assay. The following applies: for Emax: relative to 3 μM SNC80, mean ± SEM, read-out: DOR [35S]GTPγS binding % Emax of SNC80. It counts as biochemical. As for the experimental part:
as §3

The target of data set [3] is T4, MOR. Kind of data set: MOR calcium flux assay in Gαqi5-transfected mMOR-CHO cells. It counts as cell-based. The following applies: for Agonistic activity in increasing intracellular calcium, in words: compared to full MOR agonist DAMGO.
The test system of data set [4] is Swiss Webster mice. Kind of data set: Warm-water tail immersion assay, antagonism of morphine-induced antinociception. The following applies: for AD50 (95% CL) for counteracting morphine-induced antinociception: mice, s.c., given 5 min before morphine; for Antagonism of morphine's antinociception, in words: single dose of 10 mg/kg s.c. in the presence of morphine (10 mg/kg), n = 6.

The next data set relates to morphine-pelleted mice. Kind of data set: In vivo opioid withdrawal studies in morphine-pelleted mice. More on the design: species or system mouse. The following applies: for Jumps, mean count / Paw tremors, mean count / Wet dog shake, mean count: 5 mg/kg s.c., counted over 20 min; for Precipitated withdrawal symptoms, in words: s.c. As to the method: Swiss Webster mice (six males per group, weighing 25–35 g and aged 6–8 weeks) were used. Following a previously established protocol,[20] a 75 mg morphine pellet was implanted subcutaneously into the back of each mouse, and they were allowed to recover in their home cages. Prior to testing, the mice were habituated for 30 min in an open-topped, clear Plexiglas observation chamber (26 × 26 × 26 cm^3) with lines marking the floor into quadrants. […]. Withdrawal symptoms began within 3 min of antagonist administration. Escape jumps, paw tremors, and wet dog shakes were recorded by counting their occurrences over a 20 min period for each mouse. Results are expressed as the mean ± SEM.

The subject of a further data set is GI-tract motility. Set-up: method as in PMID 22683223. The following applies: cited from earlier work.
The subject of data set [5] is Swiss Webster mice. Set-up: method as in PMID 35255685. The following applies: warm-water tail immersion; cited from earlier work.
In data set [6] the test system is Swiss Webster mice. The following applies: cited from earlier work; for %MPE in single dose antagonism assay: in the presence of morphine; for AD50 (95% CL) for counteracting morphine-induced antinociception: mice.

As a reminder, the Ki is the dissociation constant of the complex between target and ligand, obtained from inhibition or displacement. Lower therefore signals higher affinity. For orientation: EC50 means the concentration that produces a half-maximal response. In general, Emax refers to the maximal effect, on the per cent scale that the assay sets. As to `O=C(N[C@H]1CC[C@@]2(O)[C@H]3Cc4ccc(O)c5c4[C@@]2(CCN3CC2CC2)[C@H]1O5)c1ccns1` [Compound 1, 17-Cyclopropylmethyl-3,14β-dihydroxy-4,5α-epoxy-6α-(5′-isothiazolylcarboxamido)-morphinan hydrochloride], the Ki on μ opioid receptor (MOR) came out at 0.51 ± 0.08 nM; on δ opioid receptor (DOR) it was 14.3 ± 0.66 nM; at κ opioid receptor (KOR), 1.81 ± 0.18 nM. In addition, the “Selectivity δ/μ” value on δ opioid receptor (DOR) (ratio of Ki values) came to 28. The “Selectivity κ/μ” value on κ opioid receptor (KOR) stood at 4. Further, the EC50 at MOR [1] amounted to 4.93 ± 0.8 nM. At MOR [1], the Emax came out at 15.6 ± 1.11%. In addition, the “Antinociceptive effect (MPE) compared to morphine, in words” value in the data set with Swiss Webster mice [2] is reported as “significantly lower than that of morphine”.
A word on the IC50: it is the midpoint of a concentration-inhibition curve. For `O=C(N[C@@H]1CC[C@@]2(O)[C@H]3Cc4ccc(O)c5c4[C@@]2(CCN3CC2CC2)[C@H]1O5)c1ccns1` [Compound 9, 17-Cyclopropylmethyl-3,14β-dihydroxy-4,5α-epoxy-6β-(5′-isothiazolylcarboxamido)-morphinan hydrochloride], the Ki is 0.32 ± 0.03 nM at μ opioid receptor (MOR), 67.8 ± 7.17 nM at δ opioid receptor (DOR) and 1.22 ± 0.32 nM at κ opioid receptor (KOR). The “Selectivity κ/μ” value at κ opioid receptor (KOR) was 4. Besides, the EC50 at MOR [1] came to 0.71 ± 0.14 nM; at KOR, 7.06 ± 0.18 nM; at DOR it was 58.1 ± 10.3 nM. The maximum response (Emax) on MOR [1] is 9.66 ± 1.37%; on KOR, 49.9 ± 1.99%; on DOR, 44.4 ± 4.15%. For the same compound, on MOR [3], the IC50 amounted to 6.53 ± 2.28 nM. On MOR [3], the “Agonistic activity in increasing intracellular calcium, in words” value is reported as “no apparent agonism; also recorded: none of them showed any significant agonistic activity”. The “AD50 (95% CL) for counteracting morphine-induced antinociception” value (“AD50 (95% CL)” for short) in the data set with Swiss Webster mice [4] is on record as 4.77 (3.59–6.34) mg/kg. Besides, the “Antagonism of morphine's antinociception, in words” value in the data set with Swiss Webster mice [4] was “significantly antagonized”.
`O=C(N[C@@H]1CC[C@@]2(O)[C@H]3Cc4ccc(O)c5c4[C@@]2(CCN3CC2CC2)[C@H]1O5)c1nccs1` [Compound 14, 17-Cyclopropylmethyl-3,14β-dihydroxy-4,5α-epoxy-6β-(2′-thiazolylcarboxamido)-morphinan hydrochloride] had a Ki at μ opioid receptor (MOR) of 0.3 ± 0.04 nM. The Ki on δ opioid receptor (DOR) came to 117 ± 23.6 nM. At κ opioid receptor (KOR), the affinity corresponds to a Ki of 0.75 ± 0.08 nM and the “Selectivity κ/μ” value is 2. For the same compound, on MOR [1], it took 0.56 ± 0.2 nM to reach a half-maximal effect (EC50) and the Emax worked out at 6.06 ± 0.52%. For the same compound, on KOR, a half-maximal response (EC50) required 9.67 ± 1.81 nM and the Emax came out at 39.8 ± 2.82%. Also, at DOR, the EC50 is 44 ± 6.82 nM and the Emax is 25.9 ± 0.4%. For the same compound, on MOR [3], the 50% inhibitory concentration (IC50) was found to be 12.4 ± 1.18 nM and the “Agonistic activity in increasing intracellular calcium, in words” value is given as “no apparent agonism; also recorded: none of them showed any significant agonistic activity”. Moreover, in the data set on morphine-pelleted mice, the “Jumps, mean count” value turned out to be 58.8; the “Paw tremors, mean count” value worked out at 45.7; the “Wet dog shake, mean count” value worked out at 17.7; the “Precipitated withdrawal symptoms, in words” value was “fewer wet dog shakes and paw tremors at all testing doses than 1 mg/kg NLX”. For the same compound, in the data set on Swiss Webster mice [4], the “AD50 (95% CL)” value is 0.23 (0.04–1.37) mg/kg and the “Antagonism of morphine's antinociception, in words” value was “significantly antagonized”.
`O=C(N[C@@H]1CC[C@@]2(O)[C@H]3Cc4ccc(O)c5c4[C@@]2(CCN3CC2CC2)[C@H]1O5)c1ccncc1` [NAP, 17-Cyclopropylmethyl-3,14β-Dihydroxy-4,5α-Epoxy-6β-[(4′-Pyridyl)Carboxamido]Morphinan]: in the data set with GI-tract motility, the “ED50 in gastrointestinal (GI)-tract motility assay” value is 8.8 µg/kg.
`O=C(N[C@H]1CC[C@@]2(O)[C@H]3Cc4ccc(O)c5c4[C@@]2(CCN3CC2CC2)[C@H]1O5)c1cccs1` [NAT, reference compound]: the IC50 at MOR [3] turned out to be 42.1 ± 4.51 nM. In the data set on morphine-pelleted mice, the “Jumps, mean count” value is 45.8; the “Paw tremors, mean count” value amounted to 29.2; the “Wet dog shake, mean count” value is listed as 14.5; the “Precipitated withdrawal symptoms, in words” value is recorded as “Significant withdrawal symptoms”. The “%MPE in single dose agonism assay” value with Swiss Webster mice [5] is listed as 15.2 ± 8.8%. Moreover, in the data set with Swiss Webster mice [6], the “%MPE in single dose antagonism assay” value is recorded as 2.1 ± 1.7% and the “AD50 (95% CL)” value is given as 0.42 (0.21–0.82) mg/kg.
`C=CCN1CC[C@]23c4c5ccc(O)c4O[C@H]2C(=O)CC[C@@]3(O)[C@H]1C5` [NLX, naloxone]: the “Precipitated withdrawal symptoms, in words” value in the data set on morphine-pelleted mice is recorded as “precipitated significant withdrawal symptoms”. In the data set on Swiss Webster mice [6], the “%MPE in single dose antagonism assay” value is 2.9 ± 1.3% and the “AD50 (95% CL)” value was 0.05 (0.03–0.09) mg/kg.
